Columns and labels:
[1] = Inhibition of Sprague-Dawley rat cytosolic alcohol dehydrogenase
[2] = molecular target: T1, Aldehyde dehydrogenase, cytosolic 1 (Rattus norvegicus, UniProt P13601); experiment: Inhibition of Sprague-Dawley rat cytosolic aldehyde dehydrogenase
T1 sequence (P13601 whole entry): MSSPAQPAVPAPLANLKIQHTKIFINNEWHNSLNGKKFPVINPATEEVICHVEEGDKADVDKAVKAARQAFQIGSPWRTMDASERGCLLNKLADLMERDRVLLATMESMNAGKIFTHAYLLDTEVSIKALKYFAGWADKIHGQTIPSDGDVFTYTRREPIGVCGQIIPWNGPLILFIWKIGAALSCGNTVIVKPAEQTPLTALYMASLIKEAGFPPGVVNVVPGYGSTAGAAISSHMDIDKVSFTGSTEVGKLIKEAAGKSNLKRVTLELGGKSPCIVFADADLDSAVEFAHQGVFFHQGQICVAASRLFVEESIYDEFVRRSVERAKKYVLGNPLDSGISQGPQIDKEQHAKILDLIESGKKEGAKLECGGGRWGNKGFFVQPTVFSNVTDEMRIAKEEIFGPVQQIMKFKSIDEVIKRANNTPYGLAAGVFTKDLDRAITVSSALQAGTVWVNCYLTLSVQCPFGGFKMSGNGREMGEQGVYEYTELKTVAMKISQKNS

[3] = molecular target: T2, Aldehyde dehydrogenase, mitochondrial (Rattus norvegicus, UniProt P11884); experiment: Inhibition of Sprague-Dawley rat mitochondrial aldehyde dehydrogenase
T2 sequence (P11884 whole entry): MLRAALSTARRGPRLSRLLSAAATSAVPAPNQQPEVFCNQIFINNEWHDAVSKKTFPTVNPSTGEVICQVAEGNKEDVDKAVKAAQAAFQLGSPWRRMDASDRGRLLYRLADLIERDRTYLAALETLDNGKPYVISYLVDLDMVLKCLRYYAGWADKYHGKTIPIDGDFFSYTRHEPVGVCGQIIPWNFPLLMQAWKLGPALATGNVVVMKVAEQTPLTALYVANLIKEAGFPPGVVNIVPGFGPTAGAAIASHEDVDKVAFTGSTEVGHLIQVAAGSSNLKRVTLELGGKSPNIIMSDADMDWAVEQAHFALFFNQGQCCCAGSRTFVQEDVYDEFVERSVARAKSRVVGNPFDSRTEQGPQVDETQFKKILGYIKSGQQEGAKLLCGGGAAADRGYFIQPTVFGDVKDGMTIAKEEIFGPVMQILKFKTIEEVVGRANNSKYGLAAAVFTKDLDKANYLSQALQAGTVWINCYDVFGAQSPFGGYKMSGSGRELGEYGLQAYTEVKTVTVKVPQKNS

Structure (SMILES)	IC50 [1]	IC50 [2]	IC50 [3]
O=C1c2cc(CO)cc(O)c2C(=O)c2c1ccc(C1(C3O[C@H](CO)[C@@H](O)[C@H](O)[C@H]3O)c3cccc(O)c3C(=O)c3c(O)cc(CO)cc31)c2O (stereo partly drawn) [listing 1 of 2 here]	0.011 µM	0.53 µM	0.72 µM
O=C1c2cccc(O)c2C(=O)c2c(O)cc(CO)cc21 [ALOE-EMODIN]	24.4 µM	6 µM	
C#CCN(C)Cc1ccccc1 [PARGYLINE]		300 µM	5.6 µM
O=C1c2cc(CO)cc(O)c2C(=O)c2c1ccc(C1(C3O[C@H](CO)[C@@H](O)[C@H](O)[C@H]3O)c3cccc(O)c3C(=O)c3c(O)cc(CO)cc31)c2O (stereo partly drawn) [listing 2 of 2 here]	0.055 µM	0.16 µM	0.36 µM
COc1cc(-c2c(C)cc(O)cc2O[C@@H]2O[C@@H](CO)[C@@H](O)[C@H](O)[C@H]2O)oc(=O)c1 [ALOENIN]	33.1 µM	27 µM	
c1cn[nH]c1 [PYRAZOLE]	9.8 µM		

From ChEMBL document CHEMBL1158874, “Elgonica-Dimers A and B, Two Potent Alcohol Metabolism Inhibitory Constituents of Aloe arborescens” (J Nat Prod, 1997)
